In patent publication US20200247812A1 (Integral Biosciences Private Limited, priority 2018, published 2020):

What was measured:
Assay type in all cases: cell-based
HCT116 = experiment: Cell viability assay (resazurin), HCT116; conditions: Homo sapiens, HCT-116, 72-144 hr
Experimental: (§1) Different cell lines such as pancreatic, (MIA PaCa-2; ATCC®CRL-1420™ & and Panc-1; CRL-1469™), liver carcinoma (HepG2; ATCC® HB-8065™), lung epithelial carcinoma (A549; ATCC® CCL-185™) and others were seeded in their respective medium (DMEM, Cat #10569044, MEM, Cat #41090036; RPMI, Cat #22400089; all with 10% FBS, Gibco, ThermoFisher) at a cell count of 3000 cells per 100 μl per well in a 96 well edge plate (167425; ThermoFisher). Cells were allowed to grow at 37° C. for 24 hr in 5% CO2 (culture conditions) in a Nuaire incubator (humidified). Serially diluted compounds (100 μl) were added to the culture plate 24 hr later and the cultures were further incubated in culture conditions for specified time depending on doubling time of specific cell line (ranging from 72-144 hr). Experiment was terminated at the completion of incubation time with the drug by replacing the medium with 100 μl of 1 mM of resazurin (R7017; Sigma) prepared in respective culture medium and the plates were further incubated in culture conditions for 4 hr. Fluorescence was then measured using a multimodal plate reader (Biotek Synergy Neo) at an excitation wavelength of 535 nm and emission wavelength of 590 nm to obtain relative fluorescence units. Data analysis was done by subtracting the background fluorescence (only medium blank) value from each reading and then normalizing with the vehicle control (DMSO treated cells) to obtain percent survival/proliferation. Percent survival at different doses was used to calculate IC50 by fitting the curve to the “four-parameter variable slope logistic model” using Prism Graph Pad.

HepG2 = experiment: Cell viability assay (resazurin), HepG2; conditions: Homo sapiens, 72-144 hr
Experimental: as §1

MiaPaCa-2 = experiment: Cell viability assay (resazurin), MiaPaCa-2; conditions: Homo sapiens, MIA PaCa-2, 72-144 hr
Experimental: Different cell lines such as pancreatic, (MIA PaCa-2; ATCC®CRL-1420™ & and Panc-1; CRL-1469™), liver carcinoma (HepG2; ATCC® HB-8065™), lung epithelial carcinoma (A549; ATCC® CCL-185™) and others were seeded in their respective medium (DMEM, Cat #10569044, MEM, Cat #41090036; RPMI, Cat #22400089; all with 10% FBS, Gibco, ThermoFisher) at a cell count of 3000 cells per 100 μl per well in a 96 well edge plate (167425; ThermoFisher). Cells were allowed to grow at 37° C. for 24 hr in 5% CO2 (culture conditions) in a Nuaire incubator (humidified). Serially diluted compounds (100 μl) were added to the culture plate 24 hr later and the cultures were further incubated in culture conditions for specified time depending on doubling time of specific cell line (ranging from 72-144 hr). […] Fluorescence was then measured using a multimodal plate reader (Biotek Synergy Neo) at an excitation wavelength of 535 nm and emission wavelength of 590 nm to obtain relative fluorescence units. Data analysis was done by subtracting the background fluorescence (only medium blank) value from each reading and then normalizing with the vehicle control (DMSO treated cells) to obtain percent survival/proliferation. […]

A427 = experiment: Cell viability assay (resazurin), A427; conditions: Homo sapiens, A-427, 72-144 hr
Experimental: as §1

MV-4-11 = experiment: Cell viability assay (resazurin), MV-4-11; conditions: Homo sapiens, MV4-11, 72-144 hr
Experimental: as §1

MCF7 = experiment: Cell viability assay (resazurin), MCF7; conditions: Homo sapiens, 72-144 hr
Experimental: as §1

Panc-10.05 = experiment: Cell viability assay (resazurin), Panc-10.05; conditions: Homo sapiens, Panc1005, 72-144 hr
Experimental: as §1

[1] = test system: mIFN-γ release by activated mouse splenocytes; experiment: Mouse splenocyte assay: reversal of TGF-β suppressed, CD3e/CD28 induced mIFN-γ release (ELISA); conditions: Balb/c splenocytes, anti-CD3e/CD28, mouse TGF-β 10 ng/ml, 72 hr, read-out: Inhibition of mIFN-γ release by activated Mouse Splenocyte, IC50
Experimental: IC50 values of compounds for reversal of TGF-β suppressed and CD3e/CD28 induced mIFNγ release was determined in mouse splenocytes isolated from Balb/c mice cultured in RPMI, Cat #22400089; 10% FBS, Gibco, ThermoFisher). Mouse splenocytes (2×10^5 cells/well) were activated with Anti-mouse CD3e (2.5 μg/ml, coated overnight at 4° C.; Cat #14-0032-82, eBioscience) and then incubated with serial dilutions of compounds (3 fold, 8 point dose response starting at 3 μM) in the presence of mouse TGF-β (10 ng/ml; Cat #14-8342-80, ebiosciences) for 30 min at 37° C., 5% CO2 in an incubator (cell culture conditions) prior to treating them with Anti-mouse CD28 (0.1 μg/ml soluble; Cat #16-0281-82, eBiosciences). Splenocytes were further incubated under cell culture conditions for 72 hr after which the supernatant was harvested, diluted to 1:50 and ELISA was performed as per the manufacturer's protocol (mIFN-γ kit; Cat #555138 & 550534, BD Biosciences). Plates were read in Biotek plate reader by measuring absorbance at 450 nm.
The reversal of TGF-β suppressed mIFN-γ release by compounds was quantified by first obtaining the amount of mIFN-γ (in pg/ml) released at each concentration of the compound with respect to the mIFN-γ standard. […] The IC50 was calculated by fitting the curve to the “four-parameter variable slope logistic model” using Prism Graph Pad.

mouse splenocytes = experiment: Mouse splenocyte viability assay (CD3e/CD28 activated, resazurin); conditions: CD3e/CD28 activated Balb/c splenocytes, 72 hr
Experimental: IC50 values of compounds for determining viability in CD3e/CD28 activated mouse splenocytes isolated from Balb/c mice cultured in RPMI, Cat #22400089; with 10% FBS, Gibco, ThermoFisher). Mouse splenocytes (2×10^5 cells/well) were activated with Anti-mouse CD3e (2.5 μg/ml, coated overnight at 4° C.; Cat #14-0032-82, eBioscience) and then incubated with serial dilutions of compounds (3 fold, 8 point dose response starting at 30 μM) for 30 min at 37° C., 5% CO2 in an incubator (cell culture conditions) prior to treating them with Anti-mouse CD28 (0.1 μg/ml soluble; Cat #16-0281-82, eBiosciences). Splenocytes were further incubated under cell culture conditions for 72 hr following which experiment was terminated by replacing the medium with 100 μl of 1 mM of resazurin (R7017; Sigma) prepared in respective culture medium and the plates were further incubated in culture conditions for 4 hr. Fluorescence was then measured using a multimodal plate reader (Biotek Synergy Neo) at an excitation wavelength of 535 nm and emission wavelength of 590 nm to obtain relative fluorescence units. Data analysis was done by subtracting the background fluorescence (only medium blank) value from each reading and then normalizing with the average of vehicle control (DMSO treated cells) to obtain percent survival/proliferation. […]

| SMILES | IC50 (HCT116) [µM] | IC50 (HepG2) [µM] | IC50 (MiaPaCa-2) [µM] | IC50 (A427) [µM] | IC50 (MV-4-11) [µM] | IC50 (MCF7) [µM] | IC50 (Panc-10.05) [µM] | IC50 [1] [µM] | IC50 (mouse splenocytes) [µM] |
| --- | --- | --- | --- | --- | --- | --- | --- | --- | --- |
| CC(C)c1[nH]c(=O)c(-c2cc(Cl)ccc2F)cc1Nc1ccnc2[nH]ccc12 [Compound 1.50, 5-((1H-pyrrolo[2,3-b]pyridin-4-yl)amino)-3-(5-chloro-2-fluorophenyl)-6-isopropylpyridin-2(1H)-one] | 1.97 | > 30 | > 30 | 3.55 | 0.7 | > 10 | 4.72 | 0.107 | > 30 |
| CC(=O)Nc1cc(Nc2cc(-c3cc(Cl)ccc3F)c(=O)[nH]c2C(C)C)ccn1 [Compound 1.48, N-(4-((5-(5-chloro-2-fluorophenyl)-2-isopropyl-6-oxo-1,6-dihydropyridin-3-yl)amino)pyridin-2-yl)acetamide] | > 30 | > 30 | > 30 | > 30 | 19.9 | > 10 | > 30 | 0.156 | > 30 |
